Reference: ChEMBL document CHEMBL1177794, “Broad spectrum alkynyl inhibitors of T315I Bcr-Abl” (Bioorg Med Chem Lett, 2010)

What was measured:
[1] = target: Cyclin-dependent kinase 17 (Homo sapiens) (UniProt Q00537); assay: Inhibition of PCTK2 at 10 uM; details: values are per cent of control
[2] = Inhibition of FLT3 ITD mutant at 10 uM; details: values are per cent of control
[3] = target: Tyrosine-protein kinase Tec (Homo sapiens) (UniProt P42680); assay: Inhibition of TEC at 10 uM; values are per cent of control
Chain of Tyrosine-protein kinase Tec (Homo sapiens) (P42680 whole entry): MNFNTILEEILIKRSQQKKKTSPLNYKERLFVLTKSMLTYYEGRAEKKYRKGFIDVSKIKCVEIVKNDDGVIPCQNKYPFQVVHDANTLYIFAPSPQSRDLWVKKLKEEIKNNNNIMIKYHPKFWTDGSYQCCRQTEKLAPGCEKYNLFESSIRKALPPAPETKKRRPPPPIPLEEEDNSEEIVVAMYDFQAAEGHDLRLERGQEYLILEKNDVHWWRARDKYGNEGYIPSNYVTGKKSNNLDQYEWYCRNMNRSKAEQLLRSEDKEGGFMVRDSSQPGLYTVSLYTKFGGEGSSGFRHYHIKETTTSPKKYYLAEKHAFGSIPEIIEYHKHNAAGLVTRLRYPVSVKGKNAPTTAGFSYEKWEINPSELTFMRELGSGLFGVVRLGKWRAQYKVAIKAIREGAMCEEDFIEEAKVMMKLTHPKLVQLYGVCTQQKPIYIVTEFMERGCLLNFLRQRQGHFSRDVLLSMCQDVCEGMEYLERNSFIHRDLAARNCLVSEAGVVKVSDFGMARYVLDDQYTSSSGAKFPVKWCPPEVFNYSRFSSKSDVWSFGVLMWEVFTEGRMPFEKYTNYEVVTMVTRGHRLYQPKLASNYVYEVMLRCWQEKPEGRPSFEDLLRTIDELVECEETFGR

[4] = target: Phosphatidylinositol 4-phosphate 5-kinase type-1 alpha (Homo sapiens) (UniProt Q99755); assay: Inhibition of PIP5K1A at 10 uM
[5] = target: Mitogen-activated protein kinase kinase kinase 10 (Homo sapiens) (UniProt Q02779); assay: Inhibition of MLK2 at 10 uM
Chain of Mitogen-activated protein kinase kinase kinase 10 (Homo sapiens) (Q02779 whole entry, looked up, the tested form may be a part): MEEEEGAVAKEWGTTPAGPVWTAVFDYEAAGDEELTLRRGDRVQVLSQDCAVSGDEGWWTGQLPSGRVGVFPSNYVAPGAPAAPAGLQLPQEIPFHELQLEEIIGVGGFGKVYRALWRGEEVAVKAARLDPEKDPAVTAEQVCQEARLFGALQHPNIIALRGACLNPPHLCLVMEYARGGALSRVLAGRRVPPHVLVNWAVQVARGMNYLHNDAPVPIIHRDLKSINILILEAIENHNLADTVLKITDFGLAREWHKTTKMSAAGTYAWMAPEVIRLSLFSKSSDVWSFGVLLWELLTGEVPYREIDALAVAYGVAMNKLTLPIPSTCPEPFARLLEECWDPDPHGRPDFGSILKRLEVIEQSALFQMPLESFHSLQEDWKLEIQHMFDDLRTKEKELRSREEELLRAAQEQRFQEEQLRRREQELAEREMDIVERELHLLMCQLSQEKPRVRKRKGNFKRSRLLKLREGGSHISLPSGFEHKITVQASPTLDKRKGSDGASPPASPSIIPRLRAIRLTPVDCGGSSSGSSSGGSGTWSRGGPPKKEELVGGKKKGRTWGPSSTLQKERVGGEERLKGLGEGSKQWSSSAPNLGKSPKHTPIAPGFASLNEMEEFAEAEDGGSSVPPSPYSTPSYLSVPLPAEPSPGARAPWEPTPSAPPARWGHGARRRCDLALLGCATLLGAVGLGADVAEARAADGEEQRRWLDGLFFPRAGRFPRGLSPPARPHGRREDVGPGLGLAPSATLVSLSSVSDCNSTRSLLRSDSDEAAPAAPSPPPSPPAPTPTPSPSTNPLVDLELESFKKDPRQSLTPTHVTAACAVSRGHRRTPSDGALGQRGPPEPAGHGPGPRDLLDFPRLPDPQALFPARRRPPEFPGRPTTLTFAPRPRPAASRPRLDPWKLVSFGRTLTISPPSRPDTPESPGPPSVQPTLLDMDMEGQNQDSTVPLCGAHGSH

[6] = target: Epithelial discoidin domain-containing receptor 1 (Homo sapiens) (UniProt Q08345); assay: Inhibition of DDR1 at 10 uM; values are per cent of control
[7] = target: Serine/threonine-protein kinase 25 (Homo sapiens) (UniProt O00506); assay: Inhibition of YSK1 at 10 uM; details: values are per cent of control
[8] = target: Calcium/calmodulin-dependent protein kinase type II subunit gamma (Homo sapiens) (UniProt Q13555); assay: Inhibition of CAMK2G at 10 uM; details: values are per cent of control
[9] = target: Ephrin type-A receptor 3 (Homo sapiens) (UniProt P29320); assay: Inhibition of EPHA3 at 10 uM; details: values are per cent of control
[10] = target: Tyrosine-protein kinase HCK (Homo sapiens) (UniProt P08631); assay: Inhibition of HCK at 10 uM; details: values are per cent of control
Chain of Tyrosine-protein kinase HCK (Homo sapiens) (P08631 2-526 limits assumed): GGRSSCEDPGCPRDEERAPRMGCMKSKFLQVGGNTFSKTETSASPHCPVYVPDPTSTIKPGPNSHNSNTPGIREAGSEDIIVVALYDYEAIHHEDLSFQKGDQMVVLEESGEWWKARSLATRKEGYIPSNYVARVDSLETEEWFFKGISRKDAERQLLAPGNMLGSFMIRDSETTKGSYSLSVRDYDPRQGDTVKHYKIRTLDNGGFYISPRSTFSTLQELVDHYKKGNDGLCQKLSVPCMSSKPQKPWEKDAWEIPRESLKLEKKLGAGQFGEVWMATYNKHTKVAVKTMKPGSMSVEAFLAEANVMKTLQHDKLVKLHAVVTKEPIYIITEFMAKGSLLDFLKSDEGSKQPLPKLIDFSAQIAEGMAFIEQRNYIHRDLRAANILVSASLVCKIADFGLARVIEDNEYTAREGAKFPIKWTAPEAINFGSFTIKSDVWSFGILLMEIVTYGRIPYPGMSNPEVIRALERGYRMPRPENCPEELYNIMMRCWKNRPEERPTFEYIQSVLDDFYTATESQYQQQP

[11] = target: BMP-2-inducible protein kinase (Homo sapiens) (UniProt Q9NSY1); assay: Inhibition of BIKE at 10 uM; details: values are per cent of control
[12] = target: MAP/microtubule affinity-regulating kinase 3 (Homo sapiens) (UniProt P27448); assay: Inhibition of MARK3 at 10 uM; details: values are per cent of control
[13] = target: Mitogen-activated protein kinase kinase kinase 20 (Homo sapiens) (UniProt Q9NYL2); assay: Inhibition of ZAK at 10 uM; details: values are per cent of control
[14] = target: Non-receptor tyrosine-protein kinase TNK1 (Homo sapiens) (UniProt Q13470); assay: Inhibition of TNK1 at 10 uM; details: values are per cent of control
[15] = target: Hormonally up-regulated neu tumor-associated kinase (Homo sapiens) (UniProt P57058); assay: Inhibition of HUNK at 10 uM; details: values are per cent of control
[16] = target: Serine/threonine-protein kinase 10 (Homo sapiens) (UniProt O94804); assay: Inhibition of LOK at 10 uM; values are per cent of control
[17] = target: Dual specificity mitogen-activated protein kinase kinase 7 (Homo sapiens) (UniProt O14733); assay: Inhibition of MKK7 at 10 uM
[18] = target: Tyrosine-protein kinase Yes (Homo sapiens) (UniProt P07947); assay: Inhibition of YES at 10 uM; details: values are per cent of control
[19] = target: Tyrosine-protein kinase receptor UFO (Homo sapiens) (UniProt P30530); assay: Inhibition of AXL at 10 uM; details: values are per cent of control
[20] = target: Serine/threonine-protein kinase pim-2 (Homo sapiens) (UniProt Q9P1W9); assay: Inhibition of PIM2 at 10 uM
[21] = target: Hepatocyte growth factor receptor (Homo sapiens) (UniProt P08581); assay: Inhibition of MET at 10 uM
[22] = target: Serine/threonine-protein kinase MRCK beta (Homo sapiens) (UniProt Q9Y5S2); assay: Inhibition of MRCKB at 10 uM
[23] = target: Eukaryotic translation initiation factor 2-alpha kinase 1 (Homo sapiens) (UniProt Q9BQI3); assay: Inhibition of EIF2AK1 at 10 uM; details: values are per cent of control
[24] = target: Casein kinase I isoform alpha-like (Homo sapiens) (UniProt Q8N752); assay: Inhibition of CSNK1A1L at 10 uM; details: values are per cent of control
[25] = target: Peripheral plasma membrane protein CASK (Homo sapiens) (UniProt O14936); assay: Inhibition of CASK at 10 uM; details: values are per cent of control
[26] = target: Cyclin-dependent kinase 3 (Homo sapiens) (UniProt Q00526); assay: Inhibition of CDK3 at 10 uM; values are per cent of control
Chain of Cyclin-dependent kinase 3 (Homo sapiens) (Q00526 whole entry, looked up): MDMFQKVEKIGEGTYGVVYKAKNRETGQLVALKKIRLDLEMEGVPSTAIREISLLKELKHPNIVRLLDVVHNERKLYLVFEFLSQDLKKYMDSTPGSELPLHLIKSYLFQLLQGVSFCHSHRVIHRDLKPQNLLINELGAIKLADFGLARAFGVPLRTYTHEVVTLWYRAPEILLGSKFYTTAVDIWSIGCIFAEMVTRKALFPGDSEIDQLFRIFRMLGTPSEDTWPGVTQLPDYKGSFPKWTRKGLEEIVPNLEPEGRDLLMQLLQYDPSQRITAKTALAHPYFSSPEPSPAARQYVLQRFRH

[27] = target: MAP kinase-activated protein kinase 2 (Homo sapiens) (UniProt P49137); assay: Inhibition of MAPKAPK2 at 10 uM; details: values are per cent of control
[28] = target: Rho-associated protein kinase 1 (Homo sapiens) (UniProt Q13464); assay: Inhibition of ROCK1 at 10 uM
Chain of Rho-associated protein kinase 1 (Homo sapiens) (Q13464 2-1354 limits assumed): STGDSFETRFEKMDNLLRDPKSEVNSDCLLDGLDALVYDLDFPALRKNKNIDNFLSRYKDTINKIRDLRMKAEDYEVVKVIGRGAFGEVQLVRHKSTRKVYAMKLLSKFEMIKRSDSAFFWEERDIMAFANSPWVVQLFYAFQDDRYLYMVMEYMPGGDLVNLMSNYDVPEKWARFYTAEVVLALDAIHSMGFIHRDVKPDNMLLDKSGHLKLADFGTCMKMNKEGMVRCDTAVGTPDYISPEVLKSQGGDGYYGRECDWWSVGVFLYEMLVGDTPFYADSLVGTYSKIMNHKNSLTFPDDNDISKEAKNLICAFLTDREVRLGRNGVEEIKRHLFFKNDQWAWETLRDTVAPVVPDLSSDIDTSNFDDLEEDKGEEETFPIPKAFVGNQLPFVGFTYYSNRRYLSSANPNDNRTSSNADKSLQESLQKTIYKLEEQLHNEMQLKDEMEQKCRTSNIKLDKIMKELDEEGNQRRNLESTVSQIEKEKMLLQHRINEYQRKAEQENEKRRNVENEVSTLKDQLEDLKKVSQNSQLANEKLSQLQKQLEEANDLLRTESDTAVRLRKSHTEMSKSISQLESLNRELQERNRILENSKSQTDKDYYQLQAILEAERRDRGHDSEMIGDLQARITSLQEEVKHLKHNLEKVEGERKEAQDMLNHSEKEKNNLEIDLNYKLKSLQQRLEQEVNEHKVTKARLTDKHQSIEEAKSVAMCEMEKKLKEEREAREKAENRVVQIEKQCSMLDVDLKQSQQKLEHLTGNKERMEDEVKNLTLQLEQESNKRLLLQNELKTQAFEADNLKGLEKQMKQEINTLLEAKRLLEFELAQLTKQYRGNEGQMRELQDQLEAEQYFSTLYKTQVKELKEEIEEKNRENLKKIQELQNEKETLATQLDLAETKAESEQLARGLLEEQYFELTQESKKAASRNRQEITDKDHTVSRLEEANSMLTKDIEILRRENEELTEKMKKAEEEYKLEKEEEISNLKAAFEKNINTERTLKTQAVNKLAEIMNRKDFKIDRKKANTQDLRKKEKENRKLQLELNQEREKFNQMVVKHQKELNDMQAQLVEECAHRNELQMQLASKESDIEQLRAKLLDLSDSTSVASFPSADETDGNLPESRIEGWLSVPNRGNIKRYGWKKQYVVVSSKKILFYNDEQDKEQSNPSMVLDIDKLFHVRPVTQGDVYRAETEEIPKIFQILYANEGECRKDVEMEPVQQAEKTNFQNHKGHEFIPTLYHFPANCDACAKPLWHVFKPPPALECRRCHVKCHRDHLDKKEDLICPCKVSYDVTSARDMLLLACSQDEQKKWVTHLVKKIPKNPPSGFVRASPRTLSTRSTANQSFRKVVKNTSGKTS

[29] = target: Serine/threonine-protein kinase tousled-like 2 (Homo sapiens) (UniProt Q86UE8); assay: Inhibition of TLK2 at 10 uM; details: values are per cent of control
[30] = target: Serine/threonine-protein kinase PLK2 (Homo sapiens) (UniProt Q9NYY3); assay: Inhibition of PLK2 at 10 uM; details: values are per cent of control
[31] = target: Tyrosine-protein kinase ABL1 (Homo sapiens) (UniProt P00519); assay: Inhibition of phosphorylated ABL1 at 10 uM; details: values are per cent of control
[32] = target: Mitogen-activated protein kinase kinase kinase kinase 1 (Homo sapiens) (UniProt Q92918); assay: Inhibition of HPK1 at 10 uM; details: values are per cent of control
[33] = target: Serine/threonine-protein kinase 38 (Homo sapiens) (UniProt Q15208); assay: Inhibition of NDR1 at 10 uM
Chain of Serine/threonine-protein kinase 38 (Homo sapiens) (Q15208 2-465 limits assumed): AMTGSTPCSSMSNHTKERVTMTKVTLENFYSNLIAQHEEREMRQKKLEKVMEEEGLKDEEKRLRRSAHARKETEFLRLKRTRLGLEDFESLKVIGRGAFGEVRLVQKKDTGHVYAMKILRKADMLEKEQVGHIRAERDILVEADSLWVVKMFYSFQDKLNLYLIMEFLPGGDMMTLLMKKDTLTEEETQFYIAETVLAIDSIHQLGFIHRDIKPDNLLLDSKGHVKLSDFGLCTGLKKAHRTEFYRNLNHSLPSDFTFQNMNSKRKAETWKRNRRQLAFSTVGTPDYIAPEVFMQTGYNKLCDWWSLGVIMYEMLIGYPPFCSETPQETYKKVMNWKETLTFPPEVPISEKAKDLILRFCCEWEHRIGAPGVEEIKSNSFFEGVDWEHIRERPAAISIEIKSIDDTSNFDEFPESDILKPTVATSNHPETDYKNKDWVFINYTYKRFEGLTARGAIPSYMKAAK

[34] = target: Inhibitor of nuclear factor kappa-B kinase subunit alpha (Homo sapiens) (UniProt O15111); assay: Inhibition of IKK-alpha at 10 uM; details: values are per cent of control
Chain of Inhibitor of nuclear factor kappa-B kinase subunit alpha (Homo sapiens) (O15111 whole entry): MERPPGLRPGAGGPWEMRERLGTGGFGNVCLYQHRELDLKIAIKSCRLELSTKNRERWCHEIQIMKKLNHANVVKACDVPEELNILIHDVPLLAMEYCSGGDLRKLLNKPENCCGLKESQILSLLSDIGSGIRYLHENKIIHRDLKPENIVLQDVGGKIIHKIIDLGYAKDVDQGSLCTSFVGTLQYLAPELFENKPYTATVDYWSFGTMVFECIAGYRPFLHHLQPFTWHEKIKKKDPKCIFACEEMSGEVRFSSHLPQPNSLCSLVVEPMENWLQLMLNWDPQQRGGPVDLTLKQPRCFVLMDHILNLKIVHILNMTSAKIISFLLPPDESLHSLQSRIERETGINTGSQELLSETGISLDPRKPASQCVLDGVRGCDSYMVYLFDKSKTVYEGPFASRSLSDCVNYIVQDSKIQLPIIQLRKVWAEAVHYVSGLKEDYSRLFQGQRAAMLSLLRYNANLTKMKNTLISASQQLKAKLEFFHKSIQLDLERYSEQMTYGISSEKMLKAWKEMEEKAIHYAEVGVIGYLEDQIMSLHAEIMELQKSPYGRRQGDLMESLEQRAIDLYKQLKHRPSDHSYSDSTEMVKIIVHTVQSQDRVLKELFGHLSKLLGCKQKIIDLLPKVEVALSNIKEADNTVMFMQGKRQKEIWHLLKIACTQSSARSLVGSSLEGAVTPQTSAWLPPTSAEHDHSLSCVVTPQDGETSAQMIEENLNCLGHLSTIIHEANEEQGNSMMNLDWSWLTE

[35] = target: Aurora kinase C (Homo sapiens) (UniProt Q9UQB9); assay: Inhibition of AURKC at 10 uM; details: values are per cent of control
[36] = target: Serine/threonine-protein kinase SIK1 (Homo sapiens) (UniProt P57059); assay: Inhibition of SIK at 10 uM; values are per cent of control
[37] = target: Serine/threonine-protein kinase NLK (Homo sapiens) (UniProt Q9UBE8); assay: Inhibition of NLK at 10 uM
[38] = target: Serine/threonine-protein kinase VRK2 (Homo sapiens) (UniProt Q86Y07); assay: Inhibition of VRK2 at 10 uM; details: values are per cent of control
[39] = target: SRSF protein kinase 2 (Homo sapiens) (UniProt P78362); assay: Inhibition of SRPK2 at 10 uM
[40] = target: Serine/threonine-protein kinase BRSK1 (Homo sapiens) (UniProt Q8TDC3); assay: Inhibition of BRSK1 at 10 uM; details: values are per cent of control
[41] = target: Protein kinase C theta type (Homo sapiens) (UniProt Q04759); assay: Inhibition of PRKCQ at 10 uM
[42] = target: Serine/threonine-protein kinase DCLK1 (Homo sapiens) (UniProt O15075); assay: Inhibition of DCAMKL1 at 10 uM; values are per cent of control
[43] = target: Interleukin-1 receptor-associated kinase 1 (Homo sapiens) (UniProt P51617); assay: Inhibition of IRAK1 at 10 uM; values are per cent of control
[44] = target: Proto-oncogene tyrosine-protein kinase ROS (Homo sapiens) (UniProt P08922); assay: Inhibition of ROS1 at 10 uM

CCN1CCN(Cc2ccc(NC(=O)c3ccc(C)c(C#Cc4cccnc4)c3)cc2C(F)(F)F)CC1
residual binding, % of control [1]: 8.2%
residual binding, % of control [2]: 0.1%
% of control [3]: 3.7%
inhibition [4]: 79%
inhibition [5]: 40%
level, % of control [6]: 0.05%
residual binding, % of control [7]: 16%
residual binding, % of control [8]: 95%
residual binding, % of control [9]: 0.85%
residual binding, % of control [10]: 0.05%
residual binding, % of control [11]: 59%
residual binding, % of control [12]: 69%
residual binding, % of control [13]: 0.4%
residual binding, % of control [14]: 0%
residual binding, % of control [15]: 54%
level, % of control [16]: 0%
inhibition [17]: 11%
residual binding, % of control [18]: 0.1%
residual binding, % of control [19]: 2.9%
inhibition [20]: 100%
inhibition [21]: 73%
inhibition [22]: 88%
residual binding, % of control [23]: 83%
residual binding, % of control [24]: 89%
residual binding, % of control [25]: 100%
level, % of control [26]: 24%
residual binding, % of control [27]: 85%
inhibition [28]: 43%
residual binding, % of control [29]: 100%
residual binding, % of control [30]: 100%
residual binding, % of control [31]: 0%
residual binding, % of control [32]: 0.4%
inhibition [33]: 4%
residual binding, % of control [34]: 0%
residual binding, % of control [35]: 13%
% of control [36]: 0.45%
inhibition [37]: 8.2%
residual binding, % of control [38]: 95%
inhibition [39]: 81%
residual binding, % of control [40]: 84%
inhibition [41]: 55%
level, % of control [42]: 95%
level, % of control [43]: 1.2%
inhibition [44]: 46%

CCN1CCN(Cc2ccc(NC(=O)c3ccc(C)c(C#Cc4cnc5[nH]ccc5c4)c3)cc2C(F)(F)F)CC1
residual binding, % of control [1]: 3.7%
residual binding, % of control [2]: 0.15%
% of control [3]: 0.1%
inhibition [4]: 10%
inhibition [5]: 9.5%
level, % of control [6]: 0%
residual binding, % of control [7]: 12%
residual binding, % of control [8]: 92%
residual binding, % of control [9]: 0.75%
residual binding, % of control [10]: 0.15%
residual binding, % of control [11]: 30%
residual binding, % of control [12]: 42%
residual binding, % of control [13]: 0.25%
residual binding, % of control [14]: 0.8%
residual binding, % of control [15]: 21%
level, % of control [16]: 0%
inhibition [17]: 5.4%
residual binding, % of control [18]: 0.25%
residual binding, % of control [19]: 0.1%
inhibition [20]: 100%
inhibition [21]: 9.2%
inhibition [22]: 67%
residual binding, % of control [23]: 72%
residual binding, % of control [24]: 75%
residual binding, % of control [25]: 100%
level, % of control [26]: 32%
residual binding, % of control [27]: 100%
inhibition [28]: 60%
residual binding, % of control [29]: 100%
residual binding, % of control [30]: 100%
residual binding, % of control [31]: 0.05%
residual binding, % of control [32]: 0.05%
inhibition [33]: 33%
residual binding, % of control [34]: 0.45%
residual binding, % of control [35]: 11%
% of control [36]: 0.25%
inhibition [37]: 13%
residual binding, % of control [38]: 90%
inhibition [39]: 63%
residual binding, % of control [40]: 100%
inhibition [41]: 36%
level, % of control [42]: 100%
level, % of control [43]: 6.2%
inhibition [44]: 34%
